Data: ChEMBL document CHEMBL3091437, “Peptide conjugates of 4-aminocyclophosphamide as prodrugs of phosphoramide mustard for selective activation by prostate-specific antigen (PSA)” (Bioorg Med Chem, 2013)
Numbered stars: 1 amine (or outer) side, 2 acyl side, 3 side chain; on linkers, the order of the positions; unused ones are H or OH. Square brackets hold non-standard residues; d marks the D form. Peptide text beside a SMILES is read from it. * marks the point of attachment. Doxorubicin(3'-N) = COc1cccc2c1C(=O)c1c(O)c3c(c(O)c1C2=O)C[C@@](O)(C(=O)CO)C[C@@H]3O[C@H]1C[C@H](N*)[C@H](O)[C@H](C)O1; X1 = O=P1(N(CCCl)CCCl)N[C@@H](N*)CCO1; Glutaryl = O=C(CCCC(=O)[*:2])[*:1]; Hyp = O=C(O)[C@@H]1C[C@@H](O)CN1; Chg = N[C@H](C(=O)O)C1CCCCC1; Suc = O=C(CCC(=O)[*:2])[*:1]

Tests used:
[1] = target: T1, Prostate-specific antigen (Homo sapiens, UniProt P07288); assay: Prodrug activation assessed as PSA (unknown origin)-mediated digestion assessed as half life at 1/100 enzyme-compound molar ratio by HPLC analysis
T1 sequence (P07288 whole entry): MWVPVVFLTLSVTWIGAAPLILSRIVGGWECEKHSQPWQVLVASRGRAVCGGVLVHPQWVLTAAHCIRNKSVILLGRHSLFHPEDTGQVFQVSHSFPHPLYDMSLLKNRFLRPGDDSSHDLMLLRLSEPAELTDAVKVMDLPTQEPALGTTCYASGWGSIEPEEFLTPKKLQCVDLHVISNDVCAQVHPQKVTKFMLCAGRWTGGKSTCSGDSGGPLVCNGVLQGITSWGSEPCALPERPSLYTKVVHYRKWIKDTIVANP

[2] = target: T2, Prostate-specific antigen (PSA) (Homo sapiens, UniProt P07288); assay: Drug metabolism assessed as PSA (unknown origin)-mediated digestion assessed as compound remaining after 50 hrs by HPLC analysis; format: ADME; conditions: PSA (prostate-specific antigen) enzyme, read-out: Drug metabolism
T2 sequence (P07288 whole entry): T1 sequence (P07288 whole entry)

[3] = target: T2, Prostate-specific antigen (PSA); assay: Drug metabolism assessed as PSA (unknown origin)-mediated digestion assessed as compound remaining after 4 hrs by HPLC analysis; format: ADME; conditions: PSA (prostate-specific antigen) enzyme, read-out: Drug metabolism
[4] = target: T1, Prostate-specific antigen; assay: Prodrug activation assessed as PSA (unknown origin)-mediated digestion assessed as glutaryl-Hyp-Ala-Ser-Chg-Gln-OH level by LC-MS analysis

| SMILES | t1/2 [1] | remaining at 50 h [2] | remaining at 4 h [3] | Drug metabolism [4] |
| --- | --- | --- | --- | --- |
| CC(C)C[C@H](NC(=O)[C@H](CCCCN)NC(=O)[C@H](CO)NC(=O)[C@H](CO)NC(=O)[C@H](Cc1cnc[nH]1)NC(=O)CCC(=O)O)C(=O)N[C@@H](CCC(N)=O)C(=O)N[C@H]1CCOP(=O)(N(CCCl)CCCl)N1 (some centres not stated) (Suc-HSSKLQ-X1) | 6.5 h | – | – | – |
| CC(C)C[C@H](NC(=O)[C@H](CCCCN)NC(=O)[C@H](CO)NC(=O)CCC(=O)O)C(=O)N[C@@H](CCC(N)=O)C(=O)N[C@H]1CCOP(=O)(N(CCCl)CCCl)N1 (some centres not stated) (Suc-SKLQ-X1) | 12 h | < 10% | – | – |
| C[C@H](NC(=O)[C@@H]1C[C@@H](O)CN1C(=O)CCCC(=O)O)C(=O)N[C@@H](CO)C(=O)N[C@H](C(=O)N[C@@H](CCC(N)=O)C(=O)N[C@H]1CCOP(=O)(N(CCCl)CCCl)N1)C1CCCCC1 (some centres not stated) (Glutaryl-[Hyp]AS[Chg]Q-X1) | 0.917 h | – | < 10% | Active |
| COc1cccc2c1C(=O)c1c(O)c3c(c(O)c1C2=O)C[C@@](O)(C(=O)CO)C[C@@H]3O[C@H]1C[C@H](NC(=O)[C@H](CC(C)C)NC(=O)[C@H](CO)NC(=O)[C@H](CCC(N)=O)NC(=O)[C@@H](NC(=O)[C@H](CO)NC(=O)[C@H](C)NC(=O)[C@@H]2C[C@@H](O)CN2C(=O)CCCC(=O)O)C2CCCCC2)[C@H](O)[C@H](C)O1 [L-377202] (Glutaryl-[Hyp]AS[Chg]QSL-{Doxorubicin(3'-N)}) | 0.5 h | – | – | – |
